{
  "source": "ChEMBL document CHEMBL3393038",
  "about": "“Prenylated flavonoids and resveratrol derivatives isolated from Artocarpus communis with the ability to overcome TRAIL resistance” (2015)",
  "key": {"[1]": {"tested_on": "AGS", "assay": "Induction of apoptosis in TRAIL-resistant human AGS cells assessed as decrease in cell viability at 2 uM after 24 hrs in presence of TRAIL (reference value: 9%)", "format": "functional"}, "[2]": {"tested_on": "AGS", "assay": "Induction of apoptosis in TRAIL-resistant human AGS cells assessed as decrease in cell viability at 5 uM after 24 hrs in presence of TRAIL (reference value: 9%)", "format": "functional"}, "[3]": {"tested_on": "AGS", "assay": "Induction of apoptosis in TRAIL-resistant human AGS cells assessed as decrease in cell viability at 20 uM after 24 hrs in presence of TRAIL (reference value: 9%)", "format": "functional"}, "[4]": {"tested_on": "AGS", "assay": "Induction of apoptosis in TRAIL-resistant human AGS cells assessed as decrease in cell viability at 40 uM after 24 hrs in presence of TRAIL (reference value: 9%)", "format": "functional"}, "[5]": {"tested_on": "AGS", "assay": "Induction of apoptosis in TRAIL-resistant human AGS cells assessed as decrease in cell viability at 7.5 uM after 24 hrs in presence of TRAIL (reference value: 9%)", "format": "functional"}, "[6]": {"tested_on": "AGS", "assay": "Induction of apoptosis in TRAIL-resistant human AGS cells assessed as decrease in cell viability at 10 uM after 24 hrs in presence of TRAIL (reference value: 9%)", "format": "functional"}, "[7]": {"tested_on": "AGS", "assay": "Induction of apoptosis in TRAIL-resistant human AGS cells assessed as population of apoptotic cells after 6 hrs by annexin-V-FLOUS/ propidium iodide staining based flow cytometry in presence of pan-caspase inhibitor z-VAD-FMK", "format": "functional"}, "[8]": {"tested_on": "AGS", "assay": "Induction of apoptosis in TRAIL-resistant human AGS cells assessed as decrease in cell viability at 3 uM after 24 hrs in presence of TRAIL (reference value: 9%)", "format": "functional"}, "[9]": {"tested_on": "AGS", "assay": "Induction of apoptosis in TRAIL-resistant human AGS cells assessed as fold increase in caspase 3/7 at 3 uM after 24 hrs by Caspase-Glo 3/7 assay kit in presence of TRAIL", "format": "functional"}, "[10]": {"tested_on": "AGS", "assay": "Induction of apoptosis in TRAIL-resistant human AGS cells assessed as fold increase in caspase 3/7 at 5 uM after 24 hrs by Caspase-Glo 3/7 assay kit in presence of TRAIL", "format": "functional"}, "[11]": {"tested_on": "AGS", "assay": "Induction of apoptosis in TRAIL-resistant human AGS cells assessed as increase in p53 protein level at 3 uM after 6 hrs by Western blotting analysis", "format": "functional, cell-based"}, "[12]": {"tested_on": "AGS", "assay": "Induction of apoptosis in TRAIL-resistant human AGS cells assessed as population of apoptotic cells after 6 hrs by annexin-V-FLOUS/ propidium iodide staining based flow cytometry in presence of TRAIL", "format": "functional"}, "[13]": {"tested_on": "AGS", "assay": "Induction of apoptosis in TRAIL-resistant human AGS cells assessed as increase in death receptor 5 protein level at 3 uM after 6 hrs by Western blotting analysis", "format": "functional"}, "[14]": {"tested_on": "AGS", "assay": "Induction of apoptosis in TRAIL-resistant human AGS cells assessed as fold increase in caspase 3/7 at 3 uM after 24 hrs by Caspase-Glo 3/7 assay kit", "format": "functional"}, "[15]": {"tested_on": "AGS", "assay": "Induction of mitochondrial membrane depolarization in human AGS cells assessed as depolarized cells after 24 hrs by JC-1 staining-based flow cytometric analysis (reference value: 27.1%)", "format": "functional"}, "[16]": {"tested_on": "AGS", "assay": "Induction of apoptosis in TRAIL-resistant human AGS cells assessed as ROS-mediated increase in death receptor 5 protein level at 3 uM after 6 hrs pretreated with NAC by Western blotting analysis", "format": "functional, cell-based"}, "[17]": {"tested_on": "AGS", "assay": "Induction of apoptosis in TRAIL-resistant human AGS cells assessed as fold increase in caspase 3/7 at 5 uM after 24 hrs by Caspase-Glo 3/7 assay kit", "format": "functional"}, "[18]": {"tested_on": "AGS", "assay": "Induction of apoptosis in TRAIL-resistant human AGS cells assessed as population of apoptotic cells after 6 hrs by annexin-V-FLOUS/ propidium iodide staining based flow cytometry", "format": "functional"}, "[19]": {"tested_on": "AGS", "assay": "Induction of apoptosis in TRAIL-resistant human AGS cells assessed as decrease in cell viability at 17.5 uM after 24 hrs in presence of TRAIL (reference value: 9%)", "format": "functional"}},
  "note": "Active and inactive are the calls of the source. The rule behind the calls is not given here.",
  "data": [
    {"smiles": "CC(C)=CCc1c2c(c3oc(-c4cc(O)c(O)cc4O)c(CC=C(C)C)c(=O)c3c1O)C=CC(C)(C)O2", "values": [
      {"measurement": "Activity", "setting": "[1]", "result": 46, "unit": "%"}
    ]},
    {"smiles": "CC(C)=CCC/C(C)=C/Cc1c(O)c(CC=C(C)C)c(O)c2c(=O)c(CC=C(C)C)c(-c3cc(O)c(O)cc3O)oc12", "values": [
      {"measurement": "Activity", "setting": "[2]", "result": 30, "unit": "%"}
    ]},
    {"smiles": "CC(C)=CCc1cc(/C=C/c2cc(O)cc(O)c2)cc(CC=C(C)C)c1O", "values": [
      {"measurement": "Activity", "setting": "[3]", "result": 25, "unit": "%"}
    ]},
    {"smiles": "COc1c(/C=C/c2cc(O)cc(O)c2)cc(CC=C(C)C)c(O)c1CC=C(C)C", "values": [
      {"measurement": "Activity", "setting": "[4]", "result": 40, "unit": "%"}
    ]},
    {"smiles": "CC(C)=CCc1c(O)c(CC=C(C)C)c2oc(-c3cc(O)c(O)cc3O)c(CC=C(C)C)c(=O)c2c1O", "values": [
      {"measurement": "Activity", "setting": "[5]", "result": 30, "unit": "%"}
    ]},
    {"smiles": "C=C(C)[C@H]1Cc2c(oc3c4c(cc(O)c3c2=O)OC(C)(C)C=C4)-c2c(O)cc(O)c(O)c21", "note": "[ARTOBILOXANTHONE]", "values": [
      {"measurement": "Activity", "setting": "[6]", "result": 32, "unit": "%"}
    ]},
    {"smiles": "CC(C)=CCc1c(-c2cc(O)c(O)cc2O)oc2c3c(cc(O)c2c1=O)OC(C)(C)C=C3", "note": "[ARTONIN E]", "values": [
      {"measurement": "inhibition (INH)", "setting": "[7]", "result": 2.9, "unit": "%"},
      {"measurement": "Activity", "setting": "[8]", "result": 44, "unit": "%"},
      {"measurement": "fold change (FC)", "setting": "[9]", "result": 12.2},
      {"measurement": "fold change (FC)", "setting": "[10]", "result": 34.3},
      {"measurement": "Activity", "setting": "[11]", "result": "Active"},
      {"measurement": "inhibition (INH)", "setting": "[12]", "result": 32.7, "unit": "%"},
      {"measurement": "fold change (FC)", "setting": "[13]", "result": 1.9},
      {"measurement": "fold change (FC)", "setting": "[14]", "result": 3.7},
      {"measurement": "Activity", "setting": "[15]", "result": 58.4, "unit": "%"},
      {"measurement": "Activity", "setting": "[16]", "result": "inactive"},
      {"measurement": "fold change (FC)", "setting": "[17]", "result": 11.1},
      {"measurement": "inhibition (INH)", "setting": "[18]", "result": 3.6, "unit": "%"}
    ]},
    {"smiles": "C=C(C)[C@H]1Cc2c(oc3c(CC=C(C)C)c(O)c(CC=C(C)C)c(O)c3c2=O)-c2c(O)cc(O)c(O)c21", "note": "[ARTORIGIDIN A]", "values": [
      {"measurement": "Activity", "setting": "[5]", "result": 26, "unit": "%"}
    ]},
    {"smiles": "CC(C)=CCc1c(-c2ccc(O)cc2O)oc2cc3c(c(O)c2c1=O)C=CC(C)(C)O3", "note": "[CUDRAFLAVONE B]", "values": [
      {"measurement": "Activity", "setting": "[4]", "result": 27, "unit": "%"}
    ]},
    {"smiles": "CC(C)=CCc1c(-c2cc(O)c(O)cc2O)oc2c(CC=C(C)C)c3c(c(O)c2c1=O)C=CC(C)(C)O3", "note": "[HETEROPHYLLIN]", "values": [
      {"measurement": "Activity", "setting": "[1]", "result": 31, "unit": "%"}
    ]},
    {"smiles": "O=c1cc(-c2ccc(O)c(O)c2)oc2cc(O)cc(O)c12", "note": "[LUTEOLIN]", "values": [
      {"measurement": "Activity", "setting": "[19]", "result": 9, "unit": "%"}
    ]},
    {"smiles": "CC(C)=CCc1c(-c2ccc(O)cc2O)oc2c3c(cc(O)c2c1=O)OC(C)(C)C=C3", "note": "[MORUSIN]", "values": [
      {"measurement": "Activity", "setting": "[4]", "result": 25, "unit": "%"}
    ]}
  ]
}
